These results are taken from ChEMBL document CHEMBL1126767, “Three-dimensional quantitative structure-activity relationship of angiotesin-converting enzyme and thermolysin inhibitors. II. A comparison of CoMFA models incorporating molecular orbital fields and desolvation free energies based on active-analog and complementary-receptor-field alignment rules” (J Med Chem, 1993).

Molecules are shown by their SMILES. Square brackets hold non-standard residues; d marks the D form. Peptide text beside a SMILES is read from it. ξ: configuration not given here. ξC = NC(CS)C(=O)O; Mpa = O=C(O)CCS

For one experiment, the target named is T1, Angiotensin-converting enzyme (Rattus norvegicus, UniProt P47820).
T1 sequence (P47820 whole entry): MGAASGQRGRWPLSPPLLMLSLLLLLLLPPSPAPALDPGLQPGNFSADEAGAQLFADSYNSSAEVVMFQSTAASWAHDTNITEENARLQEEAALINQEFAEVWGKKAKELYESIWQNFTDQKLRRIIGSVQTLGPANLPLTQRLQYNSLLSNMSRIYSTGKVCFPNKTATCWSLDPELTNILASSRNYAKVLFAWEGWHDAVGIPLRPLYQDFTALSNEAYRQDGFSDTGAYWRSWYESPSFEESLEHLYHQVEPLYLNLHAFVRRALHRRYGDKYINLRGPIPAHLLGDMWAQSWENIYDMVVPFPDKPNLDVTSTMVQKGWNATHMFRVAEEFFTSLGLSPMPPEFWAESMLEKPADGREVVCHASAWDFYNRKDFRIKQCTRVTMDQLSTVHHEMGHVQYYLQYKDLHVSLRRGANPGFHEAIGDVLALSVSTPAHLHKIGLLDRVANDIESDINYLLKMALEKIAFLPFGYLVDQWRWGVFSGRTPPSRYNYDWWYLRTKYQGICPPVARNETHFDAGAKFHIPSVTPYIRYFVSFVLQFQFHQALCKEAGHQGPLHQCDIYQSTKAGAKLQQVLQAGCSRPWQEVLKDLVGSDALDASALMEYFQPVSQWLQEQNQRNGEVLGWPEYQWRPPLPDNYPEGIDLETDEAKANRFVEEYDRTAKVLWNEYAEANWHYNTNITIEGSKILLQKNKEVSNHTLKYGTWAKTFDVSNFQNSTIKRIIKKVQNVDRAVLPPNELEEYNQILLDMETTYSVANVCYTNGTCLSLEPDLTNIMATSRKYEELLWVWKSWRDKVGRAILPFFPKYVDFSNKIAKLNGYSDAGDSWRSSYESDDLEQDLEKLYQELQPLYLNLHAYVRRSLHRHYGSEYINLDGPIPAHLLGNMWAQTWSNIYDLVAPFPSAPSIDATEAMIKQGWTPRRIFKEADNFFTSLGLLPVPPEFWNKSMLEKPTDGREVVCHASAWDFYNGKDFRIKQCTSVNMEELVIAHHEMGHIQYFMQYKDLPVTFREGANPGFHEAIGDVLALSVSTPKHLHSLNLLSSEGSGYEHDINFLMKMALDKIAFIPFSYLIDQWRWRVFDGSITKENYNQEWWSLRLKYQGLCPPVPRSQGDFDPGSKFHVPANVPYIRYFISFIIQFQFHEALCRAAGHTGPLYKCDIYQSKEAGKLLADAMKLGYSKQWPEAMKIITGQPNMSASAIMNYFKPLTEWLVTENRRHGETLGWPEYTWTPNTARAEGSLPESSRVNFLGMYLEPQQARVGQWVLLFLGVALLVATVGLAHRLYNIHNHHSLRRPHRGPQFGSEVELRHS
Description: Inhibitory activity against angiotensin converting enzyme (ACE); Activity is for a diastereomeric or racemic mixture. The experiment is classed as functional.
In the case of `C[C@H](NC(C(=O)O)C(Cc1ccccc1)NC(=O)c1ccccc1)C(=O)N1CCC[C@H]1C(=O)O` (stereo partly specified), the IC50 – broadly, the concentration needed to halve the response being measured – is 0.00776 µM.

A further experiment concerns the target Angiotensin-converting enzyme (Homo sapiens, UniProt P12821). Description: Inhibitory activity against angiotensin converting enzyme (ACE). Type of experiment: functional.
As for `NCC(=O)N[C@@H](Cc1ccccc1)C(=O)O` (H-Gly-Phe-OH), 603 µM corresponded to half-maximal inhibition (IC50). Still for that read-out and setting: the same measure for `CC[C@H](C)[C@H](N)C(=O)N1CCC[C@H]1C(=O)O` (H-Ile-Pro-OH): 129 µM; for `CC(C)[C@H](N)C(=O)N1CCC[C@H]1C(=O)O` (H-Val-Pro-OH): 417 µM. The same measure, in the same setting: for `NC(CS)C(=O)N1CCC[C@H]1C(=O)O` (stereo partly specified) (H-[ξC]-Pro-OH) the value was 0.0631 µM; for `C[C@H](NC(=O)CCS)C(=O)N1CCC[C@H]1C(=O)O` ([Mpa]-Ala-Pro-OH), 2.57 µM.

The compound `CC(CS)C(=O)N[C@@H](Cc1c[nH]c2ccccc12)C(=O)O` (stereo in doubt) gave a half-maximal inhibitory concentration (IC50) of 33.1 µM. Same read-out and setting: the same measure for `CC(CS)C(=O)N[C@@H](Cc1c[nH]c2ccccc12)C(=O)O` (stereo in doubt; 30A): 0.0347 µM; for `O=C(O)[C@@H]1CCCN1C(=O)CCS` (stereo in doubt; 34): 0.2 µM; for `C[C@@H](N)C(=O)N[C@@H](Cc1ccccc1)C(=O)O` (stereo in doubt; 52): 191 µM.

In the case of `C[C@@H](N)C(=O)N[C@@H](Cc1ccccc1)C(=O)O` (stereo in doubt; 53), half-maximal inhibition (IC50) required 52.5 µM. For the compound `O=C(O)[C@@H]1CCCN1C(=O)CCS` (stereo in doubt; 56), the concentration for half-maximal inhibition (IC50) is 17 µM. Still for that read-out and setting: for `CC(S)C(=O)N[C@@H](Cc1c[nH]c2ccccc12)C(=O)O` (stereo in doubt; form 1) the value was 0.363 µM; for `CC(S)C(=O)N[C@@H](CS)C(=O)O` (stereo in doubt; form 1), 537 µM.

On to `O=C(CCS)N[C@@H](Cc1c[nH]c2ccccc12)C(=O)O` (stereo in doubt; form 1), for which the IC50 is greater than 1000 µM.

`CC(S)C(=O)N[C@@H](Cc1c[nH]c2ccccc12)C(=O)O` (stereo in doubt; form 2) gave an IC50 of 0.0646 µM. `CC(S)C(=O)N[C@@H](CS)C(=O)O` (stereo in doubt; form 2) had a concentration for half-maximal inhibition (IC50) of 7.94 µM. `O=C(CCS)N[C@@H](Cc1c[nH]c2ccccc12)C(=O)O` (stereo in doubt; form 2) gave an IC50 of 4.57 µM.

Turning to `CC(C)(S)C(=O)N[C@@H](CS)C(=O)O` [BUCILLAMINE], the IC50 was 7240 µM. `NCCCC[C@H](OP(=O)(O)CCCCc1ccccc1)C(=O)N1CCC[C@H]1C(=O)O` [CERONAPRIL]: 0.0363 µM corresponded to half-maximal inhibition (IC50).

In turn, `NCC(=O)N1CCC[C@H]1C(=O)O` [GLYCYL PROLINE] (H-Gly-Pro-OH) had an IC50 of 447 µM.
